Laboratory results reported in publication PMC12118597 (Science Advances, 2025).
Where two headings read alike, the source gives them in different places.

Target: SARS-CoV-2 NSP3 macrodomain (Mac1) (Severe acute respiratory syndrome coronavirus 2, UniProt P0DTD1)
Experiment: biochemical
Type: binding
Details: for IC50: read-out: IC50
[1] = single dose concentration 200 μM (TS-FrankenROCS series)
[2] = compound at 200 μM, mean of three to four technical replicates, read-out: % competition at 200 μM (preliminary HTRF screen)
[3] = SARS CoV-2 macrodomain HTRF assay, single dose concentration 200 μM
[4] = Single dose, concentration 200 μM
[5] = SARS CoV-2 macrodomain HTRF assay, single dose concentration 200 μM, read-out: Average % competition

`CC1c2ccsc2CCN1C(=O)Cc1csc(-c2ccccc2)n1` (stereo not drawn) [AVI-287] was tested. Which Average % competition did it give?
The Average % competition was 0%.

For `O=C1COc2cc(C(=O)N3CC(C(=O)O)c4ccccc43)ccc2N1` (stereo not drawn) [AVI-289], which IC50 (dose-response) is on record?
Its IC50 is greater than 1000 µM.

`Cc1nc2cc(NC(=O)C3CC(=O)Nc4ccccc43)ccc2o1` (stereo not drawn) [AVI-292] was tested. Which Average % competition did it give?
The Average % competition was 0%.

How did the IC50 (dose-response) turn out when `Cc1ncc(CN(C)C(=O)c2cccc(N)c2F)s1` [AVI-293] was run?
The IC50 was greater than 1000 µM.

What about the Average % competition [1] of the same compound?
The Average % competition was 14%.

`CC1CN(C(=O)c2ccccc2S(C)(=O)=O)c2cccnc2O1` (stereo not drawn) [AVI-294] was tested. Which Average % competition did it give?
The Average % competition was 13%.

How did the Average % competition turn out when `CCCC1CCCC1C(=O)N[C@H]1CCc2nc(N)sc2C1` (stereo partly drawn) [AVI-298] was run?
The Average % competition was less than 10%.

Which Average % competition does the source give for `CC(=O)Nc1ccc(S(=O)(=O)CCCN2C(=O)CC(C)(C(C)C)C2=O)cc1` (stereo not drawn) [AVI-299] here?
The Average % competition was 19%.

How did the Average % competition turn out when `O=C(NCCCN1C(=O)NC2(CCCC2)C1=O)c1ccc(=O)[nH]c1` [AVI-300] was run?
Its Average % competition is 8%.

Which Average % competition does the source give for `Cc1ccc2c(c1)C(=O)N(CCC(=O)Nc1cnc3c(c1)c(C)nn3C)C2=O` [AVI-301] here?
Its Average % competition is 16%.

With `Cc1nnc2n1CCN(C(=O)CN1C(=O)CCOc3ccccc31)C2` [AVI-302] as the compound, how does the Average % competition read?
The Average % competition was 0%.

`CC(OC(=O)c1ccc2nc(N)sc2c1)C(=O)N1CCCCCC1` (stereo not drawn) [AVI-304] was tested. Which Average % competition did it give?
The Average % competition was 0%.

`CNC(=O)c1ccc(NC(=O)C2CC(=O)Nc3ccccc32)cc1` (stereo not drawn) [AVI-305] was tested. Which Average % competition did it give?
Its Average % competition is 0%.

For `Cc1nc(-c2cccc(NC(=O)NCc3cccs3)c2)n[nH]1` [AVI-306], which IC50 (dose-response) is on record?
Its IC50 is greater than 1000 µM.

With `O=C1CC(C(=O)Nc2nc3c(s2)CCCC3)c2ccccc2N1` (stereo not drawn) [AVI-307] as the compound, how does the Average % competition read?
Its Average % competition is 0%.

Which Average % competition does the source give for `c1ccn2c(Sc3ncnc4ccsc34)nnc2c1` [AVI-308] here?
Its Average % competition is 0%.

`CNS(=O)(=O)c1cc(C(=O)N2CCOc3ccccc32)n(C)c1` [AVI-309] was tested. Which Average % competition did it give?
The Average % competition was 0%.

Which Average % competition does the source give for `Cc1ccc(O)c(C(=O)c2cnn3c(N)nnc3c2)c1` [AVI-310] here?
Its Average % competition is 0%.

With `O=C(O)C1CN(C(=O)c2cccc3[nH]ccc23)c2ccccc21` (stereo not drawn) [AVI-314] as the compound, how does the IC50 (dose-response) read?
The IC50 was greater than 1000 µM.

With `CC(=O)Nc1ccc(NC(=O)CSc2nnnn2C2CCCC2)cc1` [AVI-315] as the compound, how does the Average % competition read?
The Average % competition was 0%.

With `O=C(c1cc(C2CCCCC2)[nH]n1)N1CCCC(O)(C(F)(F)F)CC1` (stereo not drawn) [AVI-318] as the compound, how does the Average % competition read?
The Average % competition was 13%.

With `O=C(O)C1CN(C(=O)c2ccc3n[nH]nc3c2)c2ccccc21` (stereo not drawn) [AVI-319] as the compound, how does the Average % competition read?
The Average % competition was 25%.

For `Cc1ccc(C)c(CN2C(=O)NC(C)(Cc3ccc4c(c3)OCO4)C2=O)c1` (stereo not drawn) [AVI-320], which Average % competition is on record?
The Average % competition was 18%.

Which Average % competition does the source give for `Cc1noc(NCc2cc3ccccc3[nH]c2=O)n1` [AVI-322] here?
The Average % competition was 0%.

`O=C(O)C1CN(C(=O)c2ccc3c(c2)OCCO3)CCO1` (stereo not drawn) [AVI-323] was tested. Which Average % competition did it give?
The Average % competition was 7%.

`Nc1ncnc(N2CCC(C(F)(F)F)C3(CCC3)C2)c1Cl` (stereo not drawn) [AVI-324] was tested. Which Average % competition did it give?
Its Average % competition is less than 10%.

With `CCOc1ccc(-c2nc(CC(=O)N3CCn4cccc4C3C)cs2)cc1` (stereo not drawn) [AVI-325] as the compound, how does the Average % competition read?
The Average % competition was 0%.

With `O=C(O)C1CCc2nnc(-c3ccc(F)cc3)n2C1` (stereo not drawn) [AVI-326] as the compound, how does the Average % competition read?
Its Average % competition is 15%.

For `Cc1nn(C)c2sc(C(=O)N3CC(C(=O)O)c4ccccc43)cc12` (stereo not drawn) [AVI-327], which Average % competition is on record?
The Average % competition was 0%.

`NC(=O)N1CCC[C@H]1C(=O)Nc1ccc2ncnn2c1` [AVI-330] was tested. Which Average % competition did it give?
The Average % competition was 14%.

How did the Average % competition turn out when `Nc1ncnc2sc3c(c12)CCN(C(=O)[C@H]1CC=CCC1)C3` [AVI-331] was run?
Its Average % competition is less than 10%.

`N#Cc1cnc(CSc2nc(-c3ccccc3)co2)nc1N` [AVI-332] was tested. Which Average % competition did it give?
The Average % competition was less than 10%.

Which Average % competition does the source give for `O=C(O)c1ccc2c(c1)C(NC(=O)C1CCn3ncnc3C1)CCC2` (stereo not drawn) [AVI-333] here?
Its Average % competition is 21%.

`CC1CCCC1OC(=O)Cn1cnc2c1c(=O)n(C)c(=O)n2C` (stereo not drawn) [AVI-335] was tested. Which Average % competition did it give?
The Average % competition was less than 10%.

Which Average % competition does the source give for `Cc1ccc(N2CCN(c3ncnc(-c4ccccc4)n3)CC2=O)cc1` [AVI-336] here?
The Average % competition was less than 10%.

Which Average % competition does the source give for `CC(C(=O)NCc1c(C(=O)O)[nH]c2ccccc12)n1cncn1` (stereo not drawn) [AVI-337] here?
The Average % competition was 14%.

Which “Ligand efficiency (binding enery per heavy atom)” value does the source give for `O=C1CCc2cc(C(=O)N3CC(C(=O)O)CCC34CCCC4)c(F)cc2N1` (stereo not drawn) [AVI-338] here?
The value was 0.16.

What about the Ki (dose-response) of the same compound?
Its Ki is 740 µM.

And the IC50 (dose-response)?
Its IC50 is 800 µM.

How did the IC50 (dose-response) turn out when `Nc1cc(N2CCC3CCCCC3C2)ncn1` (stereo not drawn) [AVI-339] was run?
The IC50 was greater than 1000 µM.

And the Average % competition [1]?
The Average % competition was less than 10%.

`CC1(c2ccc(F)cc2)CN(C(=O)c2cnc(N)nc2C(F)(F)F)C1` [AVI-340] was tested. Which Average % competition did it give?
The Average % competition was 20%.

With `Cn1ccc2cc(NC(=O)C3CC(=O)NC4CCCCC43)ccc21` (stereo not drawn) [AVI-342] as the compound, how does the Average % competition read?
The Average % competition was less than 10%.

How did the Average % competition turn out when `Cc1nc(N)ncc1C(=O)NCC(O)Cc1ccc(Cl)cc1` (stereo not drawn) [AVI-343] was run?
The Average % competition was less than 10%.

With `COc1ccc(-c2nccc(N3CCC(c4ccsc4)CC3)n2)cc1` [AVI-344] as the compound, how does the Average % competition read?
The Average % competition was less than 10%.

Which results are given for `CNc1ccc(NS(=O)(=O)c2cc3cccc(C)c3s2)cn1` [AVI-345]?
inhibition at 200 µM [2]: 18%; Average % competition [1]: 18%

Which results are given for `O=c1[nH]c2ccccc2cc1CNc1nc(C2CC2)ns1` [AVI-346]?
IC50 (dose-response): > 1000 µM; Average % competition [1]: <10%

How did the Average % competition turn out when `Cc1ccc(CC(=O)N2CCSC23CC(C(=O)O)C3)cc1O` (stereo not drawn) [AVI-347] was run?
The Average % competition was less than 10%.

For `CC(NC(=O)c1ccc(N)nc1Cl)C(O)c1cccc(F)c1` (stereo not drawn) [AVI-349], which Average % competition is on record?
Its Average % competition is 15%.

For `O[C@@]1(Cn2ccnn2)CCCN(c2ncnc3[nH]ccc23)C1` [AVI-608], which Average % competition [3] is on record?
The Average % competition was 8%.

What about the inhibition at 200 µM [2] of the same compound?
Its inhibition at 200 µM is less than 10%.

Which Average % competition [4] does the source give for `O[C@@H]1CNCC[C@H]1Nc1ncnc2[nH]ccc12` [AVI-613] here?
The Average % competition was less than 10%.

And the inhibition at 200 µM [2]?
Its inhibition at 200 µM is less than 10%.

Which Average % competition [3] does the source give for `CN(C)C[C@@]1(O)CCCN(c2ncnc3[nH]ccc23)C1` [AVI-614] here?
The Average % competition was less than 10%.

What about the inhibition at 200 µM [2] of the same compound?
Its inhibition at 200 µM is less than 10%.

How did the inhibition at 200 µM [5] turn out when `O[C@H]1CNCC[C@@H]1Nc1ncnc2[nH]ccc12` [AVI-615] was run?
The inhibition at 200 µM was less than 10%.

And the inhibition at 200 µM [2]?
The inhibition at 200 µM was less than 10%.

With `O=C(O)C(F)(F)F.OC1c2ccccc2CC1Nc1ncnc2[nH]ccc12` (stereo not drawn) [AVI-3634] as the compound, how does the Average % competition [4] read?
Its Average % competition is less than 10%.

What about the inhibition at 200 µM [2] of the same compound?
The inhibition at 200 µM was less than 10%.

Which Average % competition [4] does the source give for `O=C(O)C(F)(F)F.OCC(Nc1ncnc2[nH]ccc12)C1CCCO1` (stereo not drawn) [AVI-3645] here?
Its Average % competition is 54%.

And the inhibition at 200 µM [2]?
The inhibition at 200 µM was 54%.

`O=C(O)C(F)(F)F.OC[C@@H](CCc1ccccc1)Nc1ncnc2[nH]ccc12` [AVI-3654] was tested. Which Average % competition [4] did it give?
Its Average % competition is 27%.

What about the inhibition at 200 µM [2] of the same compound?
Its inhibition at 200 µM is 27%.

What does the source list for `CC(C)CCC(CO)Nc1ncnc2[nH]ccc12.O=C(O)C(F)(F)F` (stereo not drawn) [AVI-3668]?
Average % competition [4]: 38%; inhibition at 200 µM [2]: 38%

Which results are given for `O=C(O)C(F)(F)F.O=[N+]([O-])c1ccc(C(O)C(CO)Nc2ncnc3[nH]ccc23)cc1` (stereo not drawn) [AVI-3672]?
Average % competition [4]: 43%; inhibition at 200 µM [2]: 43%

For `O=C(O)C(F)(F)F.OCC(CC1CCOCC1)Nc1ncnc2[nH]ccc12` (stereo not drawn) [AVI-3676], which Average % competition [4] is on record?
Its Average % competition is less than 10%.

And the inhibition at 200 µM [2]?
Its inhibition at 200 µM is less than 10%.

With `O=C(O)C(F)(F)F.OCC(Nc1ncnc2[nH]ccc12)C(O)C1CCCCC1` (stereo not drawn) [AVI-3687] as the compound, how does the Average % competition [4] read?
The Average % competition was 33%.

What about the inhibition at 200 µM [2] of the same compound?
Its inhibition at 200 µM is 33%.

`O=C(O)C(F)(F)F.OCC(Cc1cccc(F)c1)Nc1ncnc2[nH]ccc12` (stereo not drawn) [AVI-3706] was tested. Which Average % competition [4] did it give?
The Average % competition was 77%.

And the inhibition at 200 µM [2]?
The inhibition at 200 µM was 77%.

What does the source list for `O=C(O)C(F)(F)F.OCC1C2C=CC(C2)N1c1ncnc2[nH]ccc12` (stereo not drawn) [AVI-3712]?
inhibition at 200 µM [5]: 55%; inhibition at 200 µM [2]: 55%

For `CC(C)(C)C(O)CC(CO)Nc1ncnc2[nH]ccc12.O=C(O)C(F)(F)F` (stereo not drawn) [AVI-3714], which Average % competition [4] is on record?
The Average % competition was less than 10%.

And the inhibition at 200 µM [2]?
The inhibition at 200 µM was less than 10%.

How did the Average % competition [4] turn out when `OC1CC(Cn2ccnc2)CC1Nc1ncnc2[nH]ccc12` (stereo not drawn) [AVI-3725] was run?
The Average % competition was 29%.

What about the inhibition at 200 µM [2] of the same compound?
The inhibition at 200 µM was 29%.
